In brackets after ≈: the same amount, converted by molar mass. Read-outs that look alike come from different tables or passages of the source.
Key:
HT-29 [1] = test: Sulforhodamine B antiproliferative assay, 72 h; format: cell-based, human; details: normal (21% of oxygen), 72-hour exposition
Description: (§1) Anticancer activity of PDI A1-inhibitors has been also tested in vitro in antiproliferative essay in normoxic and hypoxic conditions as well in estrogen-stimulated cancer cells. In the experiment, cells were seeded on 96-well plates (Sarstedt, Germany) in appropriate culture medium at a density of 10^5 cells/mL 24 h before adding the tested compounds. Cells were treated with each compound in four concentrations in the range 0.1-100 ug/mL. […] After 72 h of compound treatment at 37° C., 5 % CO2 humid atmosphere and in wo different oxygen level conditions: 21% - normal and <1% - hypoxia. In some experiments, the MDA-MB-231 and MCF-7 cells were seeded with or without 200 nM estradiol and after 24 h the tested compounds were added. A previously described sulforhodamine B antiproliferative assay was used with minor modifications (Skehan P et al., 1990). Briefly, cells were fixed with 50 µL/well of 50% (w/v) trichloroacetic acid (Avantor Performance Materials, Gliwice, Poland). After 1 h incubation, plates were washed several times with tap water and 50 µL of 0.4% (w/v) solution of sulforhodamine B (Sigma-Aldrich, Germany) in 1% (v/v) acetic acid (Avantor Performance Materials, Gliwice, Poland) was added to each well. After 30 min incubation at room temperature, unbound dye was washed out with 1% (v/v) acetic acid, whereas bound dye was solubilized with 10 mM unbuffered TRIS (Avantor Performance Materials, Gliwice, Poland) solution. The entire procedure was performed using a BioTek EL-406 washing station (BioTek Instruments, USA). After additional 30 min, absorbance was read using a Biotek Hybrid H4 reader (BioTek Instruments, USA) at 540 nm wavelength. MTT assay was used alternatively for HL-60 cell line and in the experiment in which estrogens are added (specified in the table legend). Absorbance was measured using a Biotek Hybrid H4 reader at 570 nm wavelength for MTT assay.
(§2) Compounds at each concentration were tested in triplicate in a single experiment and each experiment was repeated at least three times independently.
(§3) Results of in vitro antiproliferative effects are shown in Table 3 and Table 4 and are presented as mean IC50 ± SD calculated using the Prolab-3 system based on Cheburator 0.4 software.

MCF-7 [2] = test: Sulforhodamine B antiproliferative assay, 72 h, normal and hypoxia; format: cell-based, human; details: 72-hour exposition
Description: as §1, §2, §3

MDA-MB-231 [3] = test: as above; format: cell-based, human; details: 72-hour exposition
Description: as §1, §2, §3

PDI A1 = biological target: T1, PDI A1 (Homo sapiens, UniProt P07237); test: Insulin turbidometric assay, inhibition of PDI A1; format: biochemical; details: insulin reduction, turbidity at 650 nm, 60 min incubation at 37° C.; read-out: Inhibition of PDI A1 (EC 50)
T1 construct: purchased Mybiosource; host or cells: E. coli
T1 sequence (P07237 18-508, species assumed): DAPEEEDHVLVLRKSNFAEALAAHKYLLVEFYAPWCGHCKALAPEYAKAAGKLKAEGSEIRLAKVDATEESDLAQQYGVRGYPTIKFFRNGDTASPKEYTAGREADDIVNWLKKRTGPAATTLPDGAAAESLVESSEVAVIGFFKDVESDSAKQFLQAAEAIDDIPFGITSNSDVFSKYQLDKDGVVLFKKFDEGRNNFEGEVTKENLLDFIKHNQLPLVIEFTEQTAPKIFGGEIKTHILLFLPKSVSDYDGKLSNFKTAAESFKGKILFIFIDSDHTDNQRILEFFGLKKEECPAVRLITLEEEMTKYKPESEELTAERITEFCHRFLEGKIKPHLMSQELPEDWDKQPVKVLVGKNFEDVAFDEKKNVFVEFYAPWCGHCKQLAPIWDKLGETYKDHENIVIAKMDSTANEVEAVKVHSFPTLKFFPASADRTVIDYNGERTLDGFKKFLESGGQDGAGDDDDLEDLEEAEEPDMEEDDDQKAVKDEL
Description: The inhibitory effects compounds of invention on activity of PDI A1 was assess based on the insulin turbidometric assay. Enzymatic activity of PDIA1 was confirmed by measuring the turbidity increase at 650 nm due to insulin reduction. The assay mixture was prepared by addition 10 ug/ml PDIA1 (E.coli recombinant protein; Mybiosource), 0.1 mM phosphate buffer (pH7.6), 1 mM EDTA, 0.087 mM DTT and with or without tested compound and was incubated for 60 min, at 37° C. Reaction was started by addition insulin and DTT. Final concentration of insulin and DTT in assay mixture was 0.15 mM and 0.174 mM, respectively. Turbidity was detected at 650 nm against reference samples without PDI A1s. The measurements were performed at 650 nm using 120-s recordings.

[4] = test system: MCF-7 (human breast adenocarcinoma, estrogen-positive); test: MTT antiproliferative assay, 48 h; format: cell-based; details: Homo sapiens, MCF7, 48-hour exposition, read-out: Cytotoxicity, IC50, µM MCF-7
Description: (§4) About 2000-4000 cells per well (depending on line nature) were placed in 96-well plates and after 24 h compounds were added to the wells. Untreated cells were used as a control. The plates were incubated for 48 h, 37° C., 5% CO2. The number of surviving cells was determined using 3-(4,5-dimethylthiazol-2-yl)-2,5-diphenyltetrazolinium bromide (MTT). MTT-test: after incubating culture medium was removed and 200 µL fresh medium with 20 µL MTT (2 mg/mL in HBSS) was added in each well of the plate. After incubation (3 hr., 37° C., 5% CO2), the medium with MTT was removed and 200 µL DMSO were added at once to each sample. The samples were tested at 540 nm on Thermo Scientific Multiskan EX microplate photometer. The half-maximal inhibitory concentration (IC50) of each compound was calculated using Graph Pad Prism® 3.0.

[5] = test system: Caco-2 (human colon adenocarcinoma); test: MTT antiproliferative assay, 48 h; format: cell-based; details: Homo sapiens, Caco-2, 48-hour exposition, read-out: Cytotoxicity, IC50, µM CaCo-2
Description: as §4

[6] = test system: MDA-MB-231 (human mammary breast adenocarcinoma); test: MTT antiproliferative assay, 48 h; format: cell-based; details: Homo sapiens, MDA-MB-231, 48-hour exposition, read-out: Cytotoxicity, IC50, µM MDA-MB-231
Description: as §4

[7] = test system: HT-1080 (human fibrosarcoma); test: MTT antiproliferative assay, 48 h; format: cell-based; details: 48-hour exposition, read-out: Cytotoxicity, IC50, µM HT-1080
Description: as §4

HT-29 [8] = test: MTT antiproliferative assay, 72 h; format: cell-based; details: Homo sapiens, 72 hours exposition, read-out: IC50 [µg/ml] HT-29 normal
Description: as §1, §2, §3
(§5) Statistical analysis: Unpaired t test. *p<0.05 as compared to appropriate cells not pretreated with estradiol. MTT assay was used for antiproliferative activity assessment.

HL-60 = test: MTT antiproliferative assay, 72 h; format: cell-based; details: Homo sapiens, 72 hours exposition, read-out: IC50 [µg/ml] HL-60 normal
Description: as §1, §2, §3, §5

MCF-7 [9] = test: MTT antiproliferative assay, 72 h, with or without estradiol; format: cell-based, human; details: 72 hours exposition; for IC50: Homo sapiens, MCF7, MTT
Description: as §1, §2, §3, §5

MDA-MB-231 [10] = test: as above; format: cell-based, human; details: for IC50: Homo sapiens, MDA-MB-231, 72 hours exposition, MTT
Description: as §1, §2, §3, §5

[11] = 200 nM estradiol, read-out: IC50 [µg/ml] MCF-7 + estradiol
[12] = not pretreated with estradiol, read-out: IC50 [µg/ml] MCF-7 normal
[13] = 200 nM estradiol, read-out: IC50 [µg/ml] MDA-MB-231 + estradiol
[14] = not pretreated with estradiol, read-out: IC50 [µg/ml] MDA-MB-231 normal

N.N.[Cl][Pt][Cl] [Cisplatin, reference compound]
IC50 [µg/ml] HT-29 normal (HT-29 [1]): 2.82 ± 0.6 µg/mL | IC50 [µg/ml] MCF-7 hypoxia (MCF-7 [2]; hypoxia (<1% of oxygen)): 1.3 ± 0.5 µg/mL | IC50 [µg/ml] MCF-7 normal (MCF-7 [2]; normal (21% of oxygen)): 1.8 ± 0.3 µg/mL | IC50 [µg/ml] MDA-MB-231 hypoxia (MDA-MB-231 [3]; hypoxia (<1% of oxygen)): 3.1 ± 0.9 µg/mL | IC50 [µg/ml] MDA-MB-231 normal (MDA-MB-231 [3]; normal (21% of oxygen)): 3.2 ± 0.5 µg/mL

COC(=O)C1CN1S(=O)(=O)c1ccc([N+](=O)[O-])cc1 (centres unmarked) [Compound C-3212, Methyl 1-(4-nitrophenyl)sulfonylaziridine-2-carboxylate]
EC50 (PDI A1): 34 µM | melting point: 106 to 108 °C

NC(=O)C1CN1S(=O)(=O)c1ccc(N)cc1 (centres unmarked) [Compound C-3218, 1-(4-Aminophenyl)sulfonylaziridine-2-carboxamide]
EC50 (PDI A1): > 200 µM | IC50 [4]: 137 ± 14 µM | IC50 [5]: 200 ± 1 µM | IC50 [6]: 64 ± 5 µM | IC50 [7]: 200 ± 3 µM | melting point: 139 to 141 °C

CCCCCCc1ccc(S(=O)(=O)N2CC2C(=O)OC)cc1 (centres unmarked) [Compound C-3287, Methyl 1-(4-hexylphenyl)sulfonylaziridine-2-carboxylate]
IC50 (HT-29 [8]): 31.5 ± 4.9 µg/mL (≈ 96.8 µM) | IC50 (HL-60): 0.5 ± 0.3 µg/mL (≈ 1.54 µM) | Selectivity index (SI): IC50 of MCF-10A/ IC50 of MCF-7 (MCF-7 [9]): 1.10 | IC50 (MCF-7 [9]; [11]): 29.3 ± 4.1 µg/mL | IC50 (MCF-7 [9]; [12]): 31.3 ± 0.6 µg/mL (≈ 96.2 µM) | IC50 (MDA-MB-231 [10]; [13]): 23.8 ± 2.3 µg/mL | IC50 (MDA-MB-231 [10]; [14]): 6.4 ± 0.8 µg/mL (≈ 19.7 µM) | Change of antiproliferative activity towards MDA-MB-231 during simultaneous incubation with estradiol (MDA-MB-231 [10]; with estradiol versus without): slight decrease of antiproliferative activity | EC50 (PDI A1): 0.05 µM | IC50 [4]: 123 ± 17 µM

COC(=O)C1CN1S(=O)(=O)c1ccc2[nH]c(=O)ccc2c1 (centres unmarked) [Compound C-3350, Methyl 1-[(2-oxo-1H-quinolin-6-yl)sulfonyl]aziridine-2-carboxylate]
EC50 (PDI A1): 5.5 µM | IC50 [4]: 80 ± 8 µM | IC50 [5]: 49 ± 5 µM | IC50 [6]: 136 ± 6 µM | IC50 [7]: 16 ± 5 µM | melting point: 139 to 141 °C

COC(=O)C1CN1S(=O)(=O)c1ccc(F)cc1F (centres unmarked) [Compound C-3353, Methyl 1-(2,4-difluorophenyl)sulfonylaziridine-2-carboxylate]
IC50 (HT-29 [8]): 35.9 ± 1.3 µg/mL (≈ 129 µM) | IC50 (HL-60): 2 ± 0.1 µg/mL (≈ 7.21 µM) | Selectivity index (SI): IC50 of MCF-10A/ IC50 of MCF-7 (MCF-7 [9]): 3.36 | IC50 (MCF-7 [9]; [11]): 5.8 ± 1.3 µg/mL | IC50 (MCF-7 [9]; [12]): 6.2 ± 1.8 µg/mL (≈ 22.4 µM) | IC50 (MDA-MB-231 [10]; [13]): 25.7 ± 1.9 µg/mL | IC50 (MDA-MB-231 [10]; [14]): 24.2 ± 2.6 µg/mL (≈ 87.3 µM) | EC50 (PDI A1): 5 µM

COC(=O)C1CN1S(=O)(=O)c1ccc2oc(=O)ccc2c1 (centres unmarked) [Compound C-3355, Methyl 1-(2-oxochromen-6-yl)sulfonylaziridine-2-carboxylate]
EC50 (PDI A1): 7.7 µM | IC50 [4]: 276 ± 9 µM | IC50 [5]: 39 ± 1 µM | IC50 [6]: 247 ± 14 µM | IC50 [7]: 20 ± 1 µM | melting point: 42 to 44 °C

CCCCCCc1ccc(S(=O)(=O)N2CC2C(=O)NC)cc1 (centres unmarked) [Compound C-3380, 1-(4-Hexylphenyl)sulfonyl-N-methyl-aziridine-2-carboxamide]
IC50 (HT-29 [8]): 34.6 ± 2.2 µg/mL (≈ 107 µM) | IC50 (HL-60): 5.3 ± 2.8 µg/mL (≈ 16.3 µM) | Selectivity index (SI): IC50 of MCF-10A/ IC50 of MCF-7 (MCF-7 [9]): 0.75 | IC50 (MCF-7 [9]; [11]): 26.3 ± 4.3 µg/mL | IC50 (MCF-7 [9]; [12]): 25.5 ± 2.3 µg/mL (≈ 78.6 µM) | IC50 (MDA-MB-231 [10]; [13]): 26.3 ± 2.5 µg/mL | IC50 (MDA-MB-231 [10]; [14]): 26.1 ± 1 µg/mL (≈ 80.4 µM)
